Like-named read-outs stand apart in the source and are kept apart here. Where only a bound is given, the exact number is not on record here.

These results are taken from patent publication US9890185B2, “Urea derivatives useful as kinase inhibitors” (Respivert Limited, priority 2013, dated 2018).

For one assay, the system named is PBMCs. Briefly: LPS-induced IL-8 release in PBMC cells (assay b). Type of assay: cell-based, human. The following applies: LPS-stimulated PBMCs, read-out: IC50 Values for Inhibition of Cytokine Release, PBMCs IL-8. Put shortly: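 Cytokines (TNFα, IL-8) in supernatants were quantified by sandwich ELISA after a 24 h challenge with 1 ng/mL E. coli LPS at 37° C, 5% CO2. Healthy-donor PBMCs had been exposed to compound for 2 h beforehand. IC50 values were fitted from the concentration-response curves.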

The target in another assay is GSK 3α (Homo sapiens (Human), UniProt P49840). The assay is described as follows: GSK 3α enzyme inhibition (FRET, Z-LYTE, Method 2). The format is biochemical. The following applies: read-out: IC50 Values for Enzyme Inhibition, GSK3α. Put shortly: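 Recombinant human GSK3α was preincubated with compound (stocks 4, 0.4, 0.04 or 0.004 μg/mL) at RT, 2 hr for Method 1 and 105 min for Method 2. FRET peptide (8 μM stock) and ATP (40 μM stock) were added for 1 hr, then protease development for 1 hr. IC50 was taken from concentration–response curves.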
GSK 3α, sequence (P49840 whole entry): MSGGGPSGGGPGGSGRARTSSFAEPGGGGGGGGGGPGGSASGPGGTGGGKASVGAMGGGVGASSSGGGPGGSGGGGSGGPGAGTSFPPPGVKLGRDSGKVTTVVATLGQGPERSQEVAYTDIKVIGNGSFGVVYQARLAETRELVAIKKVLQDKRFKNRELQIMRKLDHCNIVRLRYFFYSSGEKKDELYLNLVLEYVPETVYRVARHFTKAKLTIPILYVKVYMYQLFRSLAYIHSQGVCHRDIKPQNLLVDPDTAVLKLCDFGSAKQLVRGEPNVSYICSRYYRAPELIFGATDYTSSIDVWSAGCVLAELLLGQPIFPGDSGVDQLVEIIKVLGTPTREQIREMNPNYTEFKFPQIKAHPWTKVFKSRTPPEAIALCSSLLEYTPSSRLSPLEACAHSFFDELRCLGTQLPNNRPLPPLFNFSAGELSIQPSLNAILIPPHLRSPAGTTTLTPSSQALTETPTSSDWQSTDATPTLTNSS

The next assay relates to d-U937 cells. The assay is described as follows: Accumulation of β catenin in d-U937 cells (assay m). Type of assay: cell-based, human. The following applies: percentage relative to Reference Compound at 1 μg/mL. As to the method: U937 cells, a human monocytic cell line, are differentiated into macrophage-type cells by incubation with PMA; (100 ng/mL) for between 48 to 72 hr. The cells are then incubated with either final concentrations of test compound or vehicle for 18 hr. The induction of β-catenin by the test compounds is stopped by replacing the media with 4% formaldehyde solution. Endogenous peroxide activity is neutralised by incubating with quenching buffer (100 μL, 0.1% sodium azide, 1% H2O2 in PBS with 0.05% Tween-20) for 20 min. The cells are washed with washing buffer (200 μL; PBS containing 0.05% Tween-20) and incubated with blocking solution (200 μL; 5% milk in PBS) for 1 hr, re-washed with washing buffer (200 μL) and then incubated overnight with anti-β-catenin antibody solution (50 μL) in 1% BSA/PBS (BD, Oxford, UK).
After washing with washing buffer (3×200 μL; PBS containing 0.05% Tween-20), cells are incubated with an HRP-conjugated secondary antibody solution (100 μL) in 1% BSA/PBS (Dako, Cambridge, UK) and the resultant signal is determined colourimetrically (OD: 450 nm with a reference wavelength of 655 nm) using TMB substrate (50 μL; R&D Systems, Abingdon, UK). This reaction is stopped by addition of 1N H2SO4 solution (50 μL). Cells are then washed with washing buffer and 2% crystal violet solution (50 μL) is applied for 30 min. After washing with washing buffer (3×200 μL), 1% SDS (100 μL) is added to each well and the plates are shaken lightly for 1 hr prior to measuring the absorbance at 595 nm (Varioskan® Flash, Thermo-Fisher Scientific).
The measured OD450-655 readings are corrected for cell number by dividing the OD450-655 by the OD595 readings.

A further assay has as its target c-Src (Homo sapiens (Human), UniProt P12931). Briefly: c-Src enzyme inhibition (FRET, Z-LYTE). The format is biochemical. The method, then:
(§1) The enzyme inhibitory activities of compounds disclosed herein are determined by FRET using synthetic peptides labelled with both donor and acceptor fluorophores (Z-LYTE, Invitrogen Ltd., Paisley, UK).
(§2) The inhibitory activities of compounds of the invention against c-Src and Syk enzymes (Invitrogen), are evaluated in a similar fashion to that described hereinabove. The relevant enzyme (3000 ng/mL or 2000 ng/mL respectively, 2.5 μL) is incubated with the test compound (either 4 μg/mL, 0.4 μg/mL, 0.04 μg/mL, or 0.004 μg/mL, 2.5 μL each) for 2 hr at RT. The FRET peptides (8 μM, 2.5 μL), and appropriate ATP solutions (2.5 μL, 800 μM for c-Src, and 60 μM ATP for Syk) are then added to the enzymes/compound mixtures and incubated for 1 hr. Development reagent (protease, 5 μL) is added for 1 hr prior to detection in a fluorescence microplate reader (Varioskan® Flash, ThermoFisher Scientific).
(§3) In all cases, the site-specific protease cleaves non-phosphorylated peptide only and eliminates the FRET signal. Phosphorylation levels of each reaction are calculated using the ratio of coumarin emission (donor) over fluorescein emission (acceptor), for which high ratios indicate high phosphorylation and low ratios indicate low phosphorylation levels. The percentage inhibition of each reaction is calculated relative to non-inhibited control and the 50% inhibitory concentration (IC50 value) is then calculated from the concentration-response curve.

The target in another assay is Syk (Homo sapiens (Human), UniProt P43405). Briefly: Syk enzyme inhibition (FRET, Z-LYTE). The format is biochemical. The method, then: as §1, §2, §3

c-Src, sequence (P12931 whole entry, looked up): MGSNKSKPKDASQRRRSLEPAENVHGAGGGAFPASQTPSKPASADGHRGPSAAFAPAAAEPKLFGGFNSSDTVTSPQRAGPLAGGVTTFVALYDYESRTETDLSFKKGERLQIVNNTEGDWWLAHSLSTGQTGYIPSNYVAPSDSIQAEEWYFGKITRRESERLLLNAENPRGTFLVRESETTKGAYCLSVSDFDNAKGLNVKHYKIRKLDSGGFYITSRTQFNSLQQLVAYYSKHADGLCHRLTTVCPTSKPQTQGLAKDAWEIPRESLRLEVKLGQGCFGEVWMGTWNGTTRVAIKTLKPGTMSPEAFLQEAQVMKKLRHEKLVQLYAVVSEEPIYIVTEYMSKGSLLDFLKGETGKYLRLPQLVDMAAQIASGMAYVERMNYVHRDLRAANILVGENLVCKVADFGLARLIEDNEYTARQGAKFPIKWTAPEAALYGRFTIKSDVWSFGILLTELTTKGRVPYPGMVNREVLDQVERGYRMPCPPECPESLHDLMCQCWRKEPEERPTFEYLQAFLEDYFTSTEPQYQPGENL

As for `COc1cccc(Nc2nccc(Oc3ccc(NC(=O)Nc4cc(C(C)(C)C)cc(P(C)(C)=O)c4OC)c4ccccc34)n2)c1` [15(g), 1-(5-(tert-butyl)-3-(dimethylphosphoryl)-2-methoxyphenyl)-3-(4-((2-((3-methoxy-phenyl)amino)pyrimidin-4-yl)oxy)naphthalen-1-yl)urea], the IC50 turned out to be 1.9 nM with PBMCs and 757 nM at GSK 3α. Moreover, the figures for the “% β-catenin induction” value with d-U937 cells (test compound 1 μg/mL), in the assay with d-U937 cells (test compound 5 μg/mL) and with d-U937 cells (test compound 10 μg/mL) were 15.0%, 94.0% and 94.0%, respectively.

Regarding `COCC(=O)Nc1cc(Oc2ccc(NC(=O)Nc3cc(C(C)(C)C)nn3-c3ccc(C)cc3)c3ccccc23)ccn1` [Reference Compound, N-(4-(4-(3-(3-tert-butyl-1-p-tolyl-1H-pyrazol-5-yl)ureido)naphthalen-1-yloxy)pyridin-2-yl)-2-methoxyacetamide, reference compound], the “% β-catenin induction” value in the assay on d-U937 cells (test compound 1 μg/mL) is recorded as 100%.

Turning to `COc1c(NC(=O)Nc2ccc(Oc3ccnc(Nc4ccccc4)n3)c3ccccc23)cc(C(C)(C)C)cc1OCP(C)(C)=O` [15(d), 1-(5-(tert-butyl)-3-((dimethylphosphoryl)methoxy)-2-methoxyphenyl)-3-(4-((2-(phenylamino)pyrimidin-4-yl)oxy)naphthalen-1-yl)urea], the IC50 turned out to be 61 nM against c-Src; 477 nM against Syk; 6.2 nM with PBMCs (Homo sapiens, PBMC); 919 nM on GSK 3α. Also, the “% β-catenin induction” value is given as 11.0% in the assay on d-U937 cells (test compound 1 μg/mL), 92.0% in the assay on d-U937 cells (test compound 5 μg/mL) and 31.0% in the assay with d-U937 cells (test compound 10 μg/mL).

`COc1cc(Nc2nccc(Oc3ccc(NC(=O)Nc4cc(C(C)(C)C)cc(C(=O)NCCN5CCOCC5)c4OC)c4ccccc34)n2)cc(C(=O)NCCN2CCOCC2)c1` [38(ak), 5-(tert-Butyl)-2-methoxy-3-(3-(4-((2-((3-methoxy-5-((2-morpholinoethyl)carbamoyl)-phenyl)amino)pyrimidin-4-yl)oxy)naphthalen-1-yl)ureido)-N-(2-morpholinoethyl)benzamide]: the concentration for half-maximal inhibition (IC50) in the assay with PBMCs (Homo sapiens, PBMC) came out at 1.2 nM; at GSK 3α, 461 nM.

For `COc1cc(Nc2cc(Oc3ccc(NC(=O)Nc4cc(C(C)(C)C)cc(S(C)(=O)=O)c4OC)c4ccccc34)ccn2)ccc1C(=O)NCCN1CCOCC1` [38(ap), 4-((4-((4-(3-(5-(tert-Butyl)-2-methoxy-3-(methylsulfonyl)phenyl)ureido)naphthalen-1-yl)oxy)pyridin-2-yl)amino)-2-methoxy-N-(2-morpholinoethyl)benzamide], the IC50 in the assay on PBMCs (Homo sapiens, PBMC) is 4.5 nM; at GSK 3α it was above 5800 nM.

For `COc1cc(Nc2cc(Oc3ccc(NC(=O)Nc4cc(C(C)(C)C)cc([S+](C)[O-])c4OC)c4ccccc34)ccn2)ccc1C(=O)O` (stereo not drawn) [79(g), 4-((4-((4-(3-(5-(tert-Butyl)-2-methoxy-3-(methylsulfinyl)phenyl)ureido)naphthalen-1-yl)oxy)pyridin-2-yl)amino)-2-methoxybenzoic acid], the IC50 came out at 17 nM at c-Src; 5 nM against Syk; 5.3 nM in the assay with PBMCs (Homo sapiens, PBMC).

For `COc1c(NC(=O)Nc2ccc(Oc3ccnc(Nc4cnoc4)n3)c3ccccc23)cc(C(C)(C)C)cc1P(C)(C)=O` [15(z), 1-(5-(tert-butyl)-3-(dimethylphosphoryl)-2-methoxyphenyl)-3-(4-((2-(isoxazol-4-ylamino)pyrimidin-4-yl)oxy)naphthalen-1-yl)urea], the IC50 came to 36.1 nM in the assay with PBMCs (Homo sapiens, PBMC) and 1500 nM at GSK 3α.

For `COc1c(NC(=O)Nc2ccc(Oc3ccnc(Nc4cnn(C)c4)n3)c3ccccc23)cc(C(C)(C)C)cc1P(C)(C)=O` [15(s), 1-(5-(tert-butyl)-3-(dimethylphosphoryl)-2-methoxyphenyl)-3-(4-((2-((1-methyl-1H-pyrazol-4-yl)amino)pyrimidin-4-yl)oxy)naphthalen-1-yl)urea], the IC50 in the assay on PBMCs (Homo sapiens, PBMC) was 1.4 nM; at GSK 3α it was 239 nM.

Turning to `COc1c(NC(=O)Nc2ccc(Oc3ccnc(Nc4ccccc4)n3)c3ccccc23)cc(C(C)(C)C)cc1S(C)(=O)=O` [15(l), 1-(5-(tert-butyl)-2-methoxy-3-(methylsulfonyl)phenyl)-3-(4-((2-(phenylamino)pyrimidin-4-yl)oxy)naphthalen-1-yl)urea], the half-inhibitory concentration (IC50) in the assay with PBMCs (Homo sapiens, PBMC) is 17.5 nM; at GSK 3α it was 8220 nM.

In the case of `CCP(=O)(CC)c1cc(C(C)(C)C)cc(NC(=O)Nc2ccc(Oc3ccnc(Nc4ccccc4)c3)c3ccccc23)c1OC` [15(ac), 1-(5-(tert-butyl)-3-(diethylphosphoryl)-2-methoxyphenyl)-3-(4-((2-(phenylamino)-pyridin-4-yl)oxy)naphthalen-1-yl)urea], the IC50 in the assay on PBMCs (Homo sapiens, PBMC) is 9.1 nM; at GSK 3α, above 14700 nM.

Turning to `COc1c(CNS(C)(=O)=O)cc(C(C)(C)C)cc1NC(=O)Nc1ccc(Oc2ccnc(Nc3ccccc3)c2)c2ccccc12` [15(aq), N-(5-(tert-butyl)-2-methoxy-3-(3-(4-((2-(phenylamino)pyridin-4-yl)oxy)naphthalen-1-yl)ureido)benzyl)methanesulfonamide], the IC50 came to 160 nM against c-Src; 1520 nM at Syk; 4.4 nM in the assay with PBMCs (Homo sapiens, PBMC); 3290 nM on GSK 3α.

As to `COc1c(NC(=O)Nc2ccc(Oc3ccnc(NCCn4cccn4)n3)c3ccccc23)cc(C(C)(C)C)cc1P(C)(C)=O` [15(ao), 1-(4-((2-((2-(1H-pyrazol-1-yl)ethyl)amino)pyrimidin-4-yl)oxy)naphthalen-1-yl)-3-(5-(tert-butyl)-3-(dimethylphosphoryl)-2-methoxyphenyl)urea], the IC50 in the assay on PBMCs (Homo sapiens, PBMC) stood at 4.1 nM; at GSK 3α it was 387 nM.

`COc1c(CC(N)=O)cc(C(C)(C)C)cc1NC(=O)Nc1ccc(Oc2ccnc(Nc3ccccc3)c2)c(F)c1F` [38(l), 2-(5-(tert-Butyl)-3-(3-(2,3-difluoro-4-((2-(phenylamino)pyridin-4-yl)oxy)phenyl)ureido)-2-methoxyphenyl)acetamide]: the IC50 was 5.9 nM with PBMCs (Homo sapiens, PBMC) and 472 nM at GSK 3α.
